Assay results: PubChem BioAssay (NCI)
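Assay format: 96-well plates, 48-hour exposure. TGI: total growth inhibition.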

What was measured:
Experiment in all cases: NCI anticancer screen, dose series, 48 h
SNB-75 CNS = tested on: SNB-75 CNS
DU-145 prostate = tested on: DU-145 prostate
SF-539 CNS = tested on: SF-539 CNS
CCRF-CEM leukemia = tested on: CCRF-CEM leukemia
ACHN renal = tested on: ACHN renal
LOX IMVI melanoma = tested on: LOX IMVI melanoma
NCI-H23 lung = tested on: NCI-H23 lung
CAKI-1 renal = tested on: CAKI-1 renal
HOP-92 NSCLC = tested on: HOP-92 NSCLC
MCF7 breast = tested on: MCF7 breast
NCI-H226 lung = tested on: NCI-H226 lung

Structure (SMILES)	TGI (SNB-75 CNS) [µM]	TGI (DU-145 prostate) [µM]	TGI (SF-539 CNS) [µM]	TGI (CCRF-CEM leukemia) [µM]	TGI (ACHN renal) [µM]	TGI (LOX IMVI melanoma) [µM]	TGI (NCI-H23 lung) [µM]	TGI (CAKI-1 renal) [µM]	TGI (HOP-92 NSCLC) [µM]	TGI (MCF7 breast) [µM]	TGI (NCI-H226 lung) [µM]
COP(=O)(OC)/C(=C\c1cn(C(c2ccccc2)(c2ccccc2)c2ccccc2)cn1)NC(C)=O	> 100	> 100	> 100	> 100	> 100	> 100	> 100	> 100	> 100	> 100	> 100
CC(C)C(NCc1c(O)ccc2c(-c3ccccc3)cc(=O)oc12)C(=O)O (stereo not given)	> 100	> 100	> 100	> 100	> 100	> 100	> 100	> 100	> 100	> 100	> 100
CCOC(=O)c1c(N2CCCC2)[nH]c(=O)c(C(c2cccs2)c2c(O)c(C(=O)OCC)c(N3CCCC3)[nH]c2=O)c1O	> 100	> 100	> 100	> 100	> 100	> 100	> 100	> 100	> 100	> 100	> 100
C=C(C)C12CC3CC/C(=N/O)C(C1)C3(N1CCOCC1)C/C2=N/O (stereo not given)	> 100	> 100	> 100	> 100	> 100	> 100	> 100	> 100	> 100	> 100	> 100
S=c1[nH]nc(NNc2ccccc2)n1Nc1ccccc1	> 100	> 100	> 73.6	42	> 100	32.5	> 100	> 100	> 79.9	> 100	> 96.6
COc1ccc(C(=O)Nc2ccc3oc(-c4ccccc4)nc3c2)cc1	89.8	> 100	> 100	> 100	> 100	> 100	> 100	> 100	> 100	> 100	> 100
CC1OC(OC2C(Oc3cc(O)c4c(c3)O[C@H](c3ccc(O)cc3)CC4=O)OC(CO)C(O)C2O)C(O)C(O)C1O (stereo not given in full)	> 100	> 100	> 100	> 100	> 100	> 100	> 100	> 100	> 100	> 100	> 100
CCN(CC)CCO/N=C1/C=C2CCC3C(CC[C@@]4(C)C3CC[C@]4(C)O)[C@@]2(C)CC1 (stereo not given in full)	9.15	34.5	14.9	3.97	39.2	14.8	29	20.1	21	80.1	10.2
C=CCn1c(-c2ccc(-c3cs/c(=N\N=O)n3CC=C)cc2)cs/c1=N\N=O	88.5	> 100	> 100	> 100	> 100	> 100	> 100	> 100	> 100	> 100	> 100
C/C(=N\NC(=S)NCc1ccccc1)c1nc2ncccc2[nH]1	49	24.5	20.8	19.2	52.9	21.4	40.8	61.2	22.5	16.2	20.8
Cc1cc(-c2nc3cccc(F)c3s2)ccc1N	99.4	> 100	> 100	80.5	> 100	> 100		> 100	> 88.2	> 100	> 100
CC(=O)c1cc(C)n2c1CS[C@@H]2c1ccccc1	> 100	93.6		60.9	> 100	> 100	> 100	> 100	> 100	> 100	> 100
CC1(C)O[C@@H](CBr)C[C@H](C[C@H]2C[C@@H](O)C[C@@H](CCOCc3ccccc3)O2)O1	36.9	61.8		> 100	57.4	71.8	36.7	51.3	77.5	46.2	35.5
CC1(C)[C@H]2Cc3cc(-c4cc5c(cn4)[C@@H]4C[C@H]([C@@H]5[C@@H]5c6cc(-c7cc8c(cn7)[C@@H]7C[C@H](C8)C7(C)C)ncc6[C@@H]6C[C@H]5C6(C)C)C4(C)C)ncc3[C@@H]1C2	> 100	> 100		> 100	> 100	> 100	> 100	> 100	> 100	> 100	> 100
COc1ccc(CCNC(=O)[C@H]2CCCC[C@@H]2CCO)cc1OC	> 100	> 100	> 100	> 100	> 100		> 100	> 100	> 100	> 100	> 100
